Source: patent US20180057505A1, “BICYCLIC HETEROARYL COMPOUNDS USEFUL AS INHIBITORS OF THE PAR-2 SIGNALING PATHWAY” (VERTEX PHARMACEUTICALS INCORPORATED, priority 2015, published 2018)

How the values were obtained:
Type in all cases: cell-based
[1] = target: T1, PAR2 (HT-29 cells) (Homo sapiens, UniProt P55085); experiment: Ca FLIPR TETRA assay, ANTAGONIST mode, activator 8 μM SLIGKV; conditions: HT-29 cells, activator 8 μM SLIGKV; maximal antagonist concentration per Method (A: 0.1, 1 or 2 μM; B: 50 μM)
T1 construct: host or cells: HT-29
T1 sequence (P55085 26-397): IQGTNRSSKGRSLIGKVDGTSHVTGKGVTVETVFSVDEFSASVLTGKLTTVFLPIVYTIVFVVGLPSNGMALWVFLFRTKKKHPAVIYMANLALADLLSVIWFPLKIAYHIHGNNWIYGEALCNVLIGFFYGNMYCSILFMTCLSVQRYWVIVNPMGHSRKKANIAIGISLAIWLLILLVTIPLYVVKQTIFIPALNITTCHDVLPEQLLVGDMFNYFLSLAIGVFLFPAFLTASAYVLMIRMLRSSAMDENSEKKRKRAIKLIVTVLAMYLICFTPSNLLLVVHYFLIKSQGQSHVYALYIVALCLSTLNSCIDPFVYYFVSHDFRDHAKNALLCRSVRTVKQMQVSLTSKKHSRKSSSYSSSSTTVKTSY
Method in brief: (§1)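 Compounds are added to calcium 5-loaded HT-29 cells, read once for intrinsic Ca2+ activation, then incubated 30 min at room temperature. The same wells are then stimulated with a fixed final activator level and the Ca2+ response recorded on FLIPR Tetra.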

[2] = target: T1, PAR2 (HT-29 cells); experiment: Ca FLIPR TETRA assay, ANTAGONIST mode, activator 3.1 U/mL trypsin; conditions: HT-29 cells, activator 3.1 U/mL trypsin; maximal antagonist concentration per Method (A: 0.1, 1 or 2 μM; B: 50 μM)
Method in brief: as §1

[3] = tested on: Thrombin-stimulated Ca2+ response in HT-29 cells; experiment: Ca FLIPR TETRA assay, ANTAGONIST mode, activator 1 U/mL Thrombin; conditions: Homo sapiens; HT-29 cells, activator 1 U/mL Thrombin
Method in brief: as §1

[4] = tested on: UTP-stimulated Ca2+ response in HT-29 cells; experiment: Ca FLIPR TETRA assay, ANTAGONIST mode, activator 0.6 μM UTP; conditions: Homo sapiens; HT-29 cells, activator 0.6 μM UTP
Method in brief: as §1

Row | IC50 [1] [nM] | IC50 [2] [nM] | IC50 [3] [nM] | IC50 [4] [nM] | Structure (SMILES)
1 | 6.4 | 7.4 | > 1000 | > 1000 | CC(C)c1cc(-c2ccc(F)cc2)nc2cc(C(=O)N3CCN(C(=O)[C@H]4C[C@@](C)(O)C4)CC3(C)C)oc12 [Example I-136]
2 | 7.8 | 9.4 | 500 | 830 | CC(C)c1cc(-c2ccc(F)cc2)nc2cc(C(=O)N3CCN(C(=O)[C@H]4C[C@@](O)(C(F)(F)F)C4)CC3(C)C)oc12 [Example I-137]
3 | 2 | 2.2 | > 1000 | > 1000 | Cc1cc(C(=O)N2CCN(C(=O)c3cc4nc(-c5ccc(F)cc5)cc(C(C)C)c4o3)C(C)(C)C2)on1 [Example I-138]
4 | 24 | 33 | > 1000 | > 1000 | CC(C)c1cc(-c2ccc(F)cc2)nc2cc(C(=O)N3CCN(C(=O)c4ccnn4C)CC3(C)C)oc12 [Example I-139]
5 | 4.8 | 3.5 | > 1000 | > 1000 | Cc1cnoc1C(=O)N1CCN(C(=O)c2cc3nc(-c4ccc(F)cc4)cc(C(C)C)c3o2)C(C)(C)C1 [Example I-140]
6 | 3.2 | 4.2 | > 1000 | > 1000 | CC(C)c1cc(-c2ccc(F)cc2)nc2cc(C(=O)N3CCN(C(=O)c4ccn(C)n4)CC3(C)C)oc12 [Example I-141]
7 | 7.2 | 13 | > 1000 | > 1000 | CC(C)c1cc(-c2ccc(F)cc2)nc2cc(C(=O)N3CCN(C(=O)c4nnc[nH]4)CC3(C)C)oc12 [Example I-142]
8 | 2.1 | 2.2 | > 1000 | > 1000 | C=C(C)c1cc(-c2ccc(F)cc2)nc2cc(C(=O)N3CCN(C(=O)[C@H]4C[C@](O)(C(F)(F)F)C4)CC3(C)C)oc12 [Example I-143]
9 | 24 | 31 | > 1000 | > 1000 | CC(C)c1cc(-c2ccc(F)cc2)nc2cc(C(=O)N3CCN(S(=O)(=O)c4cn(C)cn4)CC3(C)C)oc12 [Example I-144]
10 | 40 | 42 | > 1000 | > 1000 | Cc1ncc(S(=O)(=O)N2CCN(C(=O)c3cc4nc(-c5ccc(F)cc5)cc(C(C)C)c4o3)C(C)(C)C2)n1C [Example I-145]
11 | 13 | 21 | > 1000 | > 1000 | Cc1nn(C)cc1S(=O)(=O)N1CCN(C(=O)c2cc3nc(-c4ccc(F)cc4)cc(C(C)C)c3o2)C(C)(C)C1 [Example I-146]
12 | 20 | 34 | > 1000 | > 1000 | CC(C)c1cc(-c2ccc(F)cc2)nc2cc(C(=O)N3CCN(S(=O)(=O)c4cn[nH]c4)CC3(C)C)oc12 [Example I-147]
13 | 46 | 36 | > 1000 | > 1000 | CC(C)c1cc(-c2ccc(F)cc2)nc2cc(C(=O)N3CCN(S(=O)(=O)c4ccn(C)n4)CC3(C)C)oc12 [Example I-148]
14 | 7.6 | 9.6 | > 1000 | > 1000 | CC(C)(C)c1cc(-c2ccc(F)cc2)nc2cc(C(=O)N3CCNC(=O)C3(C)C)oc12 [Example I-149]
15 | 1.1 | 1.6 | > 1000 | > 1000 | CCc1cc(-c2ccc(F)cc2)nc2cc(C(=O)N3CCN(C(=O)[C@H]4C[C@](O)(C(F)(F)F)C4)CC3(C)C)oc12 [Example I-150]
16 | 1.5 | 2.7 | > 1000 | > 1000 | CC(C)(C)c1cc(-c2ccc(F)cc2)nc2cc(C(=O)N3CCN(C(=O)[C@H]4C[C@@](C)(O)C4)CC3(C)C)oc12 [Example I-151]
17 | 8.1 | 7.7 | > 1000 | > 1000 | CC(C)(C)c1cc(-c2ccc(F)cc2)nc2cc(C(=O)N3CCN(C(=O)c4ccn[nH]4)CC3(C)C)oc12 [Example I-152]
18 | 4.9 | 3 | > 1000 | > 1000 | CC(C)(C)c1cc(-c2ccc(Cl)cc2)nc2cc(C(=O)N3CCNC(=O)C3(C)C)oc12 [Example I-153, 4-[7-tert-butyl-5-(4-chlorophenyl)furo[3,2-b]pyridine-2-carbonyl]-3,3-dimethyl-piperazin-2-one]
19 | 4.7 | 3.6 | > 1000 | > 1000 | CC(C)(C)c1cc(-c2ccc(F)cc2)nc2cc(C(=O)N3CCN(C(=O)c4nnc[nH]4)CC3(C)C)oc12 [Example I-154]

Row | IC50 [1] [nM] | IC50 [2] [nM] | IC50 [3] [nM] | IC50 [4] [nM] | Structure (SMILES)
20 | 14 | 28 | > 1000 | > 1000 | CC(C)c1cc(-c2ccc(C(F)(F)F)cc2)nc2cc(C(=O)N3CCNC(=O)C3(C)C)oc12 [Example I-155]
21 | 18 | 26 | > 1000 | > 1000 | CC(C)(C)c1cc(-c2ccc(C(F)(F)F)cc2)nc2cc(C(=O)N3CCNC(=O)C3(C)C)oc12 [Example I-156]
22 | 3.1 | 3.9 | > 1000 | > 1000 | CC(C)(C)c1cc(-c2ccc(C(F)(F)F)cc2)nc2cc(C(=O)N3CCN(C(=O)[C@H]4C[C@@](C)(O)C4)CC3(C)C)oc12 [Example I-158]
23 | 0.6 | 1.1 | > 1000 | > 1000 | CC(C)(C)c1cc(-c2ccc(Cl)cc2)nc2cc(C(=O)N3CCN(C(=O)[C@H]4C[C@@](C)(O)C4)CC3(C)C)oc12 [Example I-159]
24 | 1.6 | 3.1 | > 1000 | > 1000 | Cc1nnc(C(=O)N2CCN(C(=O)c3cc4nc(-c5ccc(F)cc5)cc(C(C)(C)C)c4o3)C(C)(C)C2)[nH]1 [Example I-160]
25 | 16 | 25 | > 1000 | > 1000 | Cc1cc(-c2cc(C(C)(C)C)c3oc(C(=O)N4CCNC(=O)C4(C)C)cc3n2)ccc1F [Example I-161]
26 | 10 | 15 | > 1000 | > 1000 | Cc1cc(-c2cc(C(C)(C)C)c3oc(C(=O)N4CCN(C(=O)c5nnc[nH]5)CC4(C)C)cc3n2)ccc1F [Example I-162]
27 | 2.9 | 3.6 | > 1000 | > 1000 | Cc1cc(-c2cc(C(C)(C)C)c3oc(C(=O)N4CCN(C(=O)[C@H]5C[C@@](C)(O)C5)CC4(C)C)cc3n2)ccc1F [Example I-163]
28 | 2.9 | 4 | > 1000 | > 1000 | Cc1ccc(-c2cc(C(C)(C)C)c3oc(C(=O)N4CCN(C(=O)[C@H]5C[C@@](C)(O)C5)CC4(C)C)cc3n2)cc1 [Example I-164]
29 | 16 | 19 | > 1000 | > 1000 | Cc1ccc(-c2cc(C(C)(C)C)c3oc(C(=O)N4CCNC(=O)C4(C)C)cc3n2)cc1 [Example I-165]
30 | 1.3 | 3.3 | > 1000 | > 1000 | Cc1nnc(C(=O)N2CCN(C(=O)c3cc4nc(-c5ccc(F)c(C)c5)cc(C(C)(C)C)c4o3)C(C)(C)C2)[nH]1 [Example I-166]
31 | 8.4 | 19 | > 1000 | > 1000 | Cc1cc(-c2cc(C(C)(C)C)c3oc(C(=O)N4CCN(C(=O)c5ccn[nH]5)CC4(C)C)cc3n2)ccc1F [Example I-167]
32 | 2.8 | 3 | > 1000 | > 1000 | CC(C)(C)c1cc(-c2ccc(Cl)cc2)nc2cc(C(=O)N3CCN(C(=O)c4ccn[nH]4)CC3(C)C)oc12 [Example I-168]
33 | 0.9 | 2.4 | > 1000 | > 1000 | CC(C)(C)c1cc(-c2ccc(Cl)cc2)nc2cc(C(=O)N3CCN(C(=O)c4nnc[nH]4)CC3(C)C)oc12 [Example I-169]
34 | 6 | 8.2 | > 1000 | > 1000 | Cc1ncc(C(=O)N2CCN(C(=O)c3cc4nc(-c5ccc(C(F)(F)F)cc5)cc(C(C)(C)C)c4o3)C(C)(C)C2)[nH]1 [Example I-170]
35 | 5.6 | 6.6 | > 1000 | > 1000 | Cc1cc(C(=O)N2CCN(C(=O)c3cc4nc(-c5ccc(C(F)(F)F)cc5)cc(C(C)(C)C)c4o3)C(C)(C)C2)[nH]n1 [Example I-171]
36 | 10 | 12 | > 1000 | > 1000 | CC(C)(C)c1cc(-c2ccc(Cl)c(F)c2)nc2cc(C(=O)N3CCNC(=O)C3(C)C)oc12 [Example I-172, 4-[7-tert-butyl-5-(4-chloro-3-fluoro-phenyl)furo[3,2-b]pyridine-2-carbonyl]-3,3-dimethyl-piperazin-2-one]
37 | 4.8 | 7.5 | > 1000 | > 1000 | CC(C)(C)c1cc(-c2ccc(C(F)(F)F)cc2)nc2cc(C(=O)N3CCN(C(=O)c4nnc[nH]4)CC3(C)C)oc12 [Example I-173]
